Test results as given in patent US20220096517A1, “MicroRNA Compounds and Methods for Modulating MIR-10B Activity” (Regulus Therapeutics Inc., priority 2018, published 2022).
In the oligonucleotide strings, read from the 5' end, every base follows the letter of its sugar. An asterisk marks phosphorothioate; unmarked linkages are phosphodiester. Other units and linkages are bracketed, terminal groups are in braces. A string of capitals states the bases alone. e = 2'-O-(2-methoxyethyl) (MOE); [5mC] = 5-methylcytosine

Tests used:
U87 cells = experiment: cell viability assay (CellTiter-Glo), U87 cells; format: cell-based; conditions: RNAiMAX transfection, 72 hours
Description: (§1) For the cell viability assay, approximately 8,000 cells were plated into each well of a 96-well plate. The following day, cells were transfected with anti-miR-10b compound at doses of 2, 4, 8, 16, 31, 63, 125, 250, and 500 nM, using RNAiMAX™ as the transfection reagent. After 72 hours, cell viability was determined using the CellTiter-Glo® Luminescent Cell Viability Assay. An IC50 was calculated for each compound. The assay was performed using both LN229, U87, MCF7, and HCN2 cells.

miR-10b [1] = experiment: luciferase reporter assay for miR-10b in stable Hela cell line; format: cell-based; conditions: Hela reporter cells transfected with miR-10b; for Luciferase (avg fold change) 1 nM: 1 nM anti-miR-10b compound; for Luciferase (avg fold change) 10 nM: 10 nM anti-miR-10b compound; for Luciferase (avg fold change) 100 nM: 100 nM anti-miR-10b compound
Description: In vitro potency was evaluated using a luciferase reporter assay. A luciferase reporter plasmid for miR-10b was designed, with a fully complementary miR-10b binding site in the 3′-UTR of the luciferase gene. A stable Hela cell line expressing this luciferase construct was generated. Cells were transfected to introduce miR-10b, which represses the expression of luciferase from the reporter construct. […] Cells were treated with anti-miR-10b compound at concentrations of 1 nM, 10 nM, and 100 nM. […] As shorter compounds, such as 9-mers, are typically not maximally active in the same assay conditions used for longer compounds, shorter compounds were selected based on maximum inhibition relative to appropriate control compounds. In this way, compounds that are diverse in both length and chemical composition were included in further testing.

HCN2 cells = experiment: cell viability assay (CellTiter-Glo), HCN2 cells; format: cell-based; conditions: RNAiMAX transfection, 72 hours
Description: as §1

LN229 cells [2] = experiment: cell viability assay (CellTiter-Glo), LN229 cells; format: cell-based, human; conditions: RNAiMAX transfection, 72 hours
Description: as §1

MCF7 cells = experiment: cell viability assay (CellTiter-Glo), MCF7 cells; format: cell-based; conditions: RNAiMAX transfection, 72 hours
Description: as §1

LN229 cells [3] = experiment: LN229 Orthotopic Model, summary of in vivo studies (Table 7); design: species or system nude mice; conditions: for survival benefit: Intratumoral anti-miR-10b alone, cell reads 'No survival benefit' over three lines
Description: (§2) Human gliomablastoma-derived cells growing in culture are trypsinzed, counted, and resuspended PBS. The cells express a fluorescent marker and luciferase insertion that enables monitoring of tumor growth and size via an in vivo imaging system. Approximately 5×10^5 cells, in a volume of 5 ul, are injected into the brain of nude mice. Following intracranial tumor implantation, tumor burden is measured using the IVIS Spectrum In Vivo Imaging System (PerkinElmer), and mice are randomized into treatment groups. Intratumoral (e.g., 0.1-500 ug/tumor), subcutaneous (e.g., 100 mg/kg) or intravenous (e.g., 80 mg/kg) dosing of anti-miR-10b compound begins post-implantation. Tumor burden is measured weekly using the imaging system. Final tumor size and weight are measured at the end of the study.
Three candidate therapeutic agents, RG5579, RG5461, and RG5658 were tested in the subcutaneous and orthotopic glioma models. […] The studies were designed to evaluate subcutaneous administration vs. intratumoral administration in subcutaneous in orthotopic models; efficacy of the anti-miR-10b compound alone and in combination with TMZ; and efficacy of a single injection of anti-miR-10b compound vs multiple injections. The research tool compound RG384124 was also tested.
The results of the in vivo studies are summarized in Table 7 and illustrate the substantial improvement of overall survival following treatment with both anti-miR-10b compound and TMZ. RG5461 and RG5658 improved overall median survival in combination with TMZ treatment.

LN229 cells [4] = experiment: orthotopic LN229 glioblastoma model, RG5579 alone or with TMZ, survival; format: in vivo; conditions: intratumoral 40 ug RG5579 Day 21, TMZ daily Days 35-41, nude mice
Description: RG5579 was tested in an orthotopic model of GBM established with LN229 cells.
Human gliomablastoma-derived LN229 cells growing in culture were trypsinized, counted, and resuspended PBS. The cells express a fluorescent marker that enables monitoring of tumor growth and size during treatment. Approximately 5×10^5 cells, in a volume of 5 ul, were injected into the brain of nude mice on Day 0. Mice were randomized into the following treatment groups, with 8 mice per group: (1) PBS; (2) RG5579; (3) PBS+TMZ; and (4) RG5579+TMZ. On Day 21, mice were given an intratumoral injection of either PBS or 40 ug of RG5579. On Days 35-41, TMZ was administered daily. Survival was monitored, and overall median survival was determined.

LN229 cells [5] = experiment: orthotopic LN229 glioblastoma model, RG5461 and RG5658 alone or with TMZ, survival; format: in vivo; conditions: single intratumoral dose Day 21 (20 ug RG5658, 50 ug RG5461), TMZ daily Days 35-41, nude mice
Description: RG5658 and RG5461 were tested in an orthotopic model of GBM established with LN229 cells. Treatments comprised anti-miR-10b compound alone or in combination with TMZ.
Further testing was performed to evaluate the effects of RG5658 and RG5461 treatment in combination with TMZ. Human gliomablastoma-derived LN229 cells growing in culture were trypsinzed, counted, and resuspended PBS. The cells express a fluorescent marker that enables monitoring of tumor growth and size during treatment. Approximately 5×10^5 cells, in a volume of 5 ul, were injected into the brain of nude mice on Day 0. Mice were randomized into the following treatment groups, with 8 mice per group: (1) PBS; (2) RG5461; (3) RG5658; (4) RG5461+TMZ; (5) RG5658+TMZ; and (6) PBS+TMZ. On Day 21, a single dose of anti-miR-10b compound was administered intratumorally at a dose of 20 ug for RG5658 or 50 ug for RG5461. TMZ was administered daily on each of Days 35-41. Survival was monitored, and overall median survival was determined.

[6] = test system: Human gliomablastoma-derived cells; experiment: initial testing in subcutaneous and orthotopic glioma models, single intratumoral dose; format: in vivo, nude mice; conditions: single dose administered intratumorally
Description: Human gliomablastoma-derived cells growing in culture are trypsinzed, counted, and resuspended in a 1:1 mixture of media:growth factor reduced Matrigel. Approximately 10^6 cells, in a volume of 100 ul, are injected subcutaneously into the flank of nude mice. Ten days following subcutaneous tumor implantation, tumor size is measured using calipers, and mice are randomized into treatment groups. Intratumoral (e.g., 5 ug/30 mm^3 tumor), subcutaneous (e.g., 100 mg/kg) or intravenous (e.g., 80 mg/kg) dosing of anti-miR-10b compound begins post-implantation. Tumor size is measured three to five days per week. Final tumor size and weight are measured at the end of the study.
as §2, with “Intratumoral (e.g., 0.1-500 ug/tumor), subcutaneous (e.g., 100 mg/kg) or intravenous (e.g., 80 mg/kg) dosing of anti-miR-10b compound begins post-implantation.” left out

miR-10b [7] = experiment: PD signature (mRNA of direct miR-10b target genes) in LN229 cells; format: cell-based, human
Description: To evaluate the on-target pharmacodynamic effects of treatment with anti-miR-10b, 18 genes that are direct targets of miR-10b were identified by next generation sequencing, and the expression of each of these genes following anti-miR-10b treatment was measured. The 18 genes were: ATXN2, ATXN7, BCL6, BDNF, CRLF3, DAZAP1, DVL3, FXR2, GATAD2A, GCLM, GTF2H1, INO80D, MIEF1, NCOA6, NFE2L1, PDE4A, SMAD2, and TET2.
LN229 cells were treated with a concentration of RG5579 ranging from 2 to 500 nM. After 24 hours, RNA was isolated and the mRNA levels of the 18 genes targeted were measured and averaged to provide a pharmacodynamic signature score (PD Signature Score), represented as Log 2 fold-change (Log 2FC) relative to mock-transfection.
Similar studies were conducted with RG5461 and RG5658, using a PD signature of 10 genes (non-overlapping with the 18-gene PD signature above).

Compound	IC50 (U87 cells) [nM]	Luciferase (avg fold change) 1 nM (miR-10b [1]) [fold change]	Luciferase (avg fold change) 10 nM (miR-10b [1]) [fold change]	Luciferase (avg fold change) 100 nM (miR-10b [1]) [fold change]	IC50 (HCN2 cells) [nM]	IC50 (LN229 cells [2]) [nM]	IC50 (MCF7 cells) [nM]	survival benefit (LN229 cells [3])	Median Overall Survival % increase (relative to PBS) (LN229 cells [4]) [%]	Median Overall Survival Days (LN229 cells [4]) [days]	% increase (relative to PBS) of median survival (LN229 cells [5]) [%]	Median Survival (LN229 cells [5]) [days]	overall survival [6]	tumor growth [6]	median survival increase (LN229 cells [3]; Intratumoral anti-miR-10b + TMZ) [%]	10-gene PD signature (miR-10b [7])
5′-CACAAATTCGGTTCTACAGGGTA-3′ (antisense e[5mC]*eA*e[5mC]*eA*eA*eA*eT*eT*e[5mC]*eG*eG*eT*eT*e[5mC]*eT*eA*e[5mC]*eA*eG*eG*eG*eT*eA) [RG384124, research tool compound; each nucleoside 2′-O-methoxyethyl, each C 5-methylcytosine, each linkage phosphorothioate]	31.3	2.8	29.5	55.6	44.4	43	80.5	No								
Cn1nnc2c(C(N)=O)ncn2c1=O [TMZ, temozolomide]									27	61.5	22	67.5				
UKAKCMAFGFGFGMUKAK (CAAATUCGGTTCTACAGGGTA; LNA/2'-F/2'-OMe modifications, chemistry not fully specified) [RG5658, anti-miR-10b modified oligonucleotide, 9 linked nucleosides]	45.6	1.8	3.7	4.7		90.1	929	No				56	did not significantly improve overall survival	consistently delayed tumor growth	71	dose-dependent de-repression of a 10-gene PD signature
